The values that follow come from ChEMBL document CHEMBL1201862, “PubChem BioAssay data set” (2004).

Among the test systems are HT-29; LOX IMVI; IGROV-1; OVCAR-4; SF-539; SF-295; HCT-116; SW-620; SR; UACC-62; OVCAR-3; NCI-H226; MDA-N; 786-0; K562; HCC 2998; SK-MEL-28; MDA-MB-435; CAKI-1; SNB-75.
Experiment in all cases: inhibition of tumour cell growth, NCI panel, 48 h

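All cell lines were grown in 96-well plates and treated with compound for 48 hours. The concentration for 50% growth inhibition is given as GI50.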 Active and inactive are the calls of the source. Rule as the data show it: active = GI50 up to about 1.1 µM and inactive = higher. Bounds are passed on as bounds.

In the case of `COc1ccc([C@H]2[C@H](C)C3=Nc4ccccc4CN32)cc1`, the GI50 was 35.8 µM (inactive) with HT-29; 39.8 µM (inactive) in the assay with LOX IMVI; 63.7 µM (inactive) with IGROV-1; > 100 µM (inactive) with OVCAR-4; 39.3 µM (inactive) in the assay on SF-539; 49.4 µM (inactive) in the assay on SF-295. The GI50 in the assay on HCT-116 is 33.8 µM (inactive); in the assay on SW-620 it was 39.9 µM (inactive); in the assay on SR, 36.8 µM (inactive); with UACC-62 it was 57.5 µM (inactive); in the assay with OVCAR-3, > 100 µM (inactive); in the assay on NCI-H226, 85.1 µM (inactive). The GI50 in the assay on MDA-N was 20.7 µM (inactive); in the assay on 786-0 it was 54.1 µM (inactive); in the assay on K562, 39.2 µM (inactive); in the assay with HCC 2998 it was 41.9 µM (inactive); in the assay on SK-MEL-28, 33.2 µM (inactive); with MDA-MB-435, 31.4 µM (inactive). Also, the GI50 with CAKI-1 was > 100 µM (inactive).

Regarding `CC1=NC2(CCCCC2)N(Cl)C(=O)C1SC#N` (stereo unspecified), the GI50 is 20.7 µM (inactive) in the assay on HT-29; 10.7 µM (inactive) in the assay with LOX IMVI; 18.2 µM (inactive) with IGROV-1; 20.8 µM (inactive) in the assay with OVCAR-4; 19.5 µM (inactive) with SF-539; 18.7 µM (inactive) in the assay on SF-295. Also, the GI50 is 20.7 µM (inactive) in the assay with SNB-75; 12.8 µM (inactive) with SW-620; > 100 µM (inactive) in the assay with SR; 13.4 µM (inactive) with UACC-62; 19.6 µM (inactive) in the assay with OVCAR-3; 24 µM (inactive) in the assay on NCI-H226. For the same molecule, the GI50 is 15.8 µM (inactive) in the assay on MDA-N; 17.5 µM (inactive) in the assay on 786-0; 9.46 µM (inactive) in the assay with K562; 20.7 µM (inactive) in the assay on HCC 2998; 18 µM (inactive) in the assay with SK-MEL-28; 19.2 µM (inactive) in the assay with MDA-MB-435.

Regarding `C1=C[C@@H]2c3ccc4cnccc4c3NC[C@@H]2C1`, the GI50 in the assay with IGROV-1, in the assay on SF-539, with SF-295, with SNB-75, with HCT-116 and with SW-620 was > 100 µM (inactive) in each case. Besides, the GI50 is > 100 µM (inactive) in the assay with SR; 58.2 µM (inactive) with UACC-62; > 100 µM (inactive) in the assay on OVCAR-3; > 100 µM (inactive) with NCI-H226; > 100 µM (inactive) in the assay with MDA-N; > 100 µM (inactive) with 786-0. The GI50 in the assay with K562, in the assay on HCC 2998, with SK-MEL-28 and with MDA-MB-435 was > 100 µM (inactive) in each case.

With `COc1ccc(OC)c([N+](=O)[O-])c1-c1nc2sccn2c1/C=N/N=C(N)N`, the GI50 in the assay with HT-29 is 63.8 µM (inactive); in the assay on LOX IMVI it was 36.9 µM (inactive); in the assay with IGROV-1, 91.6 µM (inactive); with SF-539, > 100 µM (inactive); in the assay on SF-295, > 100 µM (inactive); with HCT-116, 48.4 µM (inactive). For the same molecule, the GI50 in the assay with SW-620 is 93.3 µM (inactive); in the assay on SR, 30.6 µM (inactive); in the assay with UACC-62, 91.8 µM (inactive); in the assay with OVCAR-3, 58.1 µM (inactive); with NCI-H226, > 100 µM (inactive); in the assay on MDA-N, 49.8 µM (inactive). For the same molecule, the GI50 in the assay with 786-0 was > 100 µM (inactive); in the assay with K562, 43.6 µM (inactive); in the assay on HCC 2998, 30.4 µM (inactive); with SK-MEL-28 it was 17.7 µM (inactive); in the assay on MDA-MB-435 it was 52.7 µM (inactive); in the assay with CAKI-1 it was > 100 µM (inactive).

For the molecule `Cc1nc2c(O)cc3c4c([nH]c3c2nc1C)C(=O)CCC4`, the GI50 is 1.52 µM (inactive) in the assay with HT-29; 2.29 µM (inactive) with LOX IMVI; 2.87 µM (inactive) in the assay on OVCAR-4; 2.85 µM (inactive) in the assay with SF-539; 5.08 µM (inactive) in the assay with SF-295; 3.01 µM (inactive) with HCT-116. Moreover, the GI50 was 4.22 µM (inactive) in the assay on SW-620; 2.36 µM (inactive) with SR; 3.66 µM (inactive) in the assay on UACC-62; 2.61 µM (inactive) in the assay with OVCAR-3; 25.1 µM (inactive) in the assay on NCI-H226; 0.869 µM (active) in the assay on MDA-N. The GI50 in the assay with 786-0 is 5.85 µM (inactive); in the assay on K562, 5.06 µM (inactive); in the assay with HCC 2998 it was 1.71 µM (inactive); with SK-MEL-28, 2.8 µM (inactive); in the assay with MDA-MB-435, 0.541 µM (active).

For the molecule `CC1CC[C@@]2(OC1)OC1C[C@H]3[C@@H]4C/C(=N\N(C)C)[C@@]5(O)CC(O)CC[C@]5(C)[C@H]4CC[C@]3(C)C1[C@@H]2C` (stereo partly specified), the GI50 in the assay on HT-29 is 20 µM (inactive); in the assay on LOX IMVI, 42.5 µM (inactive); in the assay with IGROV-1, 89.1 µM (inactive); with OVCAR-4, 74.6 µM (inactive); in the assay on SF-539 it was 36 µM (inactive); with HCT-116, 24.7 µM (inactive). Further, the GI50 is 55.8 µM (inactive) with SW-620; 22.5 µM (inactive) with SR; 37.5 µM (inactive) in the assay on UACC-62; 43.9 µM (inactive) in the assay on OVCAR-3; > 100 µM (inactive) with NCI-H226; 23.3 µM (inactive) in the assay with MDA-N. Moreover, the GI50 is 40.6 µM (inactive) with 786-0; 38.7 µM (inactive) with K562; 68.5 µM (inactive) with HCC 2998; > 100 µM (inactive) with SK-MEL-28; 29.8 µM (inactive) in the assay on MDA-MB-435.

As for `CC(C)(C)OC(=O)N(O)CCCn1cnc2c(N)ncnc21`, the GI50 with HT-29, in the assay with LOX IMVI, in the assay on IGROV-1, in the assay on OVCAR-4, in the assay on SF-539 and in the assay with SF-295 was > 100 µM (inactive) each time. The GI50 in the assay with SNB-75, in the assay with HCT-116, in the assay with SW-620, in the assay with SR, with UACC-62 and in the assay with OVCAR-3 was > 100 µM (inactive) throughout. The GI50 in the assay with NCI-H226, in the assay with MDA-N, in the assay on 786-0, in the assay on K562, with HCC 2998 and in the assay on SK-MEL-28 was > 100 µM (inactive) in each case. In the assay with MDA-MB-435, the GI50 was > 100 µM (inactive).

As for `COc1ccc(/N=N/c2ccc3oc(=O)c(C(=O)Nc4ccc(Cl)cc4)cc3c2)cc1`, the GI50 in the assay with HT-29 was > 10 µM (inactive); in the assay with LOX IMVI, 9.95 µM (inactive); with IGROV-1 it was 3.52 µM (inactive); in the assay on OVCAR-4, > 10 µM (inactive); in the assay with SF-539, 5.18 µM (inactive); in the assay on SF-295, > 10 µM (inactive). In addition, the GI50 with SNB-75 was > 10 µM (inactive); in the assay with SW-620, 6.97 µM (inactive); with SR it was 2.38 µM (inactive); with OVCAR-3, 7.28 µM (inactive); in the assay with NCI-H226, > 10 µM (inactive); with MDA-N, > 10 µM (inactive). The GI50 in the assay on 786-0, in the assay on HCC 2998, in the assay with SK-MEL-28, in the assay on MDA-MB-435 and with CAKI-1 was > 10 µM (inactive) in each case.

Regarding `Cc1nn(C(=O)Cc2ccccc2)c2c1C(c1ccc(O)cc1)SC(=N)N2` (stereo unspecified), the GI50 is > 100 µM (inactive) in the assay on HT-29; > 100 µM (inactive) in the assay on LOX IMVI; > 100 µM (inactive) in the assay with IGROV-1; > 100 µM (inactive) with SF-539; > 100 µM (inactive) in the assay on SF-295; 44.6 µM (inactive) with SNB-75. Also, the GI50 in the assay on HCT-116, in the assay on SW-620, in the assay on SR, in the assay on UACC-62, with NCI-H226 and with MDA-N was > 100 µM (inactive) throughout. Moreover, the GI50 with 786-0, in the assay with K562, with HCC 2998, in the assay with SK-MEL-28, with MDA-MB-435 and with CAKI-1 was > 100 µM (inactive) throughout.

Regarding `O=C(NN=C1NCCCN1)c1ccco1`, the GI50 in the assay with HT-29, in the assay with LOX IMVI, in the assay with IGROV-1, with OVCAR-4, in the assay with SF-539 and with SF-295 was > 100 µM (inactive) throughout. Moreover, the GI50 with SNB-75, with HCT-116, with SW-620, with SR, in the assay with UACC-62 and in the assay on OVCAR-3 was > 100 µM (inactive) in each case. For the same molecule, the GI50 in the assay on NCI-H226, in the assay with MDA-N, in the assay on 786-0, in the assay with K562, in the assay with HCC 2998 and with SK-MEL-28 was > 100 µM (inactive) in each case. The GI50 with MDA-MB-435 is > 100 µM (inactive).

On to `COc1cc(Cc2cnc(N)nc2N)cc(OC)c1OCCCNc1ccc([N+](=O)[O-])cc1`, for which the GI50 is 2.92 µM (inactive) with HT-29; 12.5 µM (inactive) in the assay with IGROV-1; 15.8 µM (inactive) in the assay with OVCAR-4; 12.7 µM (inactive) in the assay with SF-539; 16.2 µM (inactive) with SNB-75; 12.6 µM (inactive) in the assay on HCT-116. In addition, the GI50 in the assay on SW-620 is 15.1 µM (inactive); in the assay with SR, 4.68 µM (inactive); in the assay with UACC-62, 12.9 µM (inactive); with OVCAR-3, 14.5 µM (inactive); in the assay with NCI-H226, 13.4 µM (inactive); in the assay on MDA-N it was 16.2 µM (inactive). Further, the GI50 with 786-0 is 12.4 µM (inactive); in the assay with K562 it was 8.69 µM (inactive); in the assay with HCC 2998, 14.5 µM (inactive); with SK-MEL-28 it was 13.9 µM (inactive); with MDA-MB-435 it was 13.8 µM (inactive); in the assay on CAKI-1 it was 33.2 µM (inactive).
